Source: publication PMC5062169, “Structural basis for ligand recognition by a Cache chemosensory domain that mediates carboxylate sensing in Pseudomonas syringae” (Scientific Reports, 2016)
Peptide text beside a SMILES is read from it.

What follows are compounds tested against T1, PscD (PscD-SD, Cache sensor domain of chemoreceptor PscD) (Pseudomonas syringae, UniProt A0ABY1U976) (assay: ITC; thermal shift). Settings: not given.
T1 construct: gene CFBP3846_03581; sensor domain, Gln31-Trp188, N-terminal His6 tag
Type: binding

SMILES | Kd
O=C(O)CO [glycolate] | 23 µM

Same assay, conditions: read-out: Kd

SMILES | Kd
CC(=O)O [acetate] | 31 µM
CC(=O)C(=O)O [pyruvate] | 356 µM

Each compound was assayed against T2, PscD (PscD-SD, Cache sensor domain of chemoreceptor PscD) (Pseudomonas syringae, UniProt A0ABY1U976) (assay: not given). Settings: Biolog plate compound, exact concentration unknown; binder.
T2 construct: gene CFBP3846_03581; sensor domain, Gln31-Trp188, N-terminal His6 tag
T2 sequence (A0ABY1U976 31-188): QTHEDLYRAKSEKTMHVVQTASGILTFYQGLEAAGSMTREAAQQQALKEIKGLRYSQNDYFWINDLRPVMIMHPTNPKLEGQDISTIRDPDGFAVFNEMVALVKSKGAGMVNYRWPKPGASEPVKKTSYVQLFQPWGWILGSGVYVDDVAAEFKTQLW
Set-up: fluorescence thermal shift (SYPRO Orange) screen of Biolog PM1/PM2 compounds, delta Tm
Source text: (§1) We used high-throughput fluorescence thermal shift (FTS) assays (as described previously[16]) to screen for potential ligands of PscD-SD. FTS assays are based on the principle that ligands stabilise proteins upon binding, causing an increase in the melting temperature of the protein[22][23]. Binding can therefore be rapidly screened by measuring the difference in the temperature midpoint of unfolding (ΔTm) of a protein in the presence and absence of potential ligands. In our FTS assays, the Tm was measured by monitoring an increase in fluorescence of a dye with affinity for hydrophobic parts of the protein (i.e. SYPRO Orange), which are exposed as the protein unfolds. We screened the recombinant PscD-SD protein in FTS assays against the compounds in Biolog Phenotype Microarray (PM) plates 1 and 2 (Supplementary Tables 1 and 2). Each plate contains 95 different compounds (e.g., organic acids, sugars) and a water (no ligand) control. For use in FTS assays, the compounds were resuspended directly in water, thus generating a library of biologically relevant potential ligands. […] Fluorescent thermal shift (FTS) assays were conducted as reported previously. PscD-SD was screened for potential ligands against Biolog Phenotype Microarray (PM) plates 1 and 2 (Biolog, Hayward, CA, USA). For initial qualitative, high-throughput screening, ligands were prepared by dissolving Biolog PM compounds in 50 μL of water (each) to obtain a final concentration of approximately 10–20 mM (the exact concentrations vary from well-to-well). Screens were set up in Lightcycler 480 multiwell plates (Roche Diagnostics, Auckland, NZ) with 20 μM protein, a 5x concentration of SYPRO orange (Life Technologies, Carlsbad, CA, USA) and 5 μL of the test compound (i.e. resuspended Biolog ligands) added to each well. The plate was covered with Lightcycler 480 sealing film (Roche Diagnostics) and fluorescence signal was monitored as the temperature was increased from 20 °C to 80 °C at a rate of 1.2 °C.min^−1 in a Lightcycler 480 (Roche Diagnostics). Initial hits were further tested using known concentrations (0, 1, 2, 5 and 10 mM) of each potential ligand to confirm binding. The ligands were prepared as 10x stocks, 2 μL were added to each well, and the experiments were conducted as described above. The first derivative values (−dF/dt) from the raw fluorescence data were used to determine the melting temperature (Tm). Three biological replicates (from independently cultured and purified batches of protein) were performed for each plate screened.

SMILES | Δ Tm
OC[C@H]1O[C@@H]2O[C@H]3[C@H](O)[C@@H](O)[C@@H](O[C@H]4[C@H](O)[C@@H](O)[C@@H](O[C@H]5[C@H](O)[C@@H](O)[C@@H](O[C@H]6[C@H](O)[C@@H](O)[C@@H](O[C@H]7[C@H](O)[C@@H](O)[C@@H](O[C@H]8[C@H](O)[C@@H](O)[C@@H](O[C@H]9[C@H](O)[C@@H](O)[C@@H](O[C@H]1[C@H](O)[C@H]2O)O[C@@H]9CO)O[C@@H]8CO)O[C@@H]7CO)O[C@@H]6CO)O[C@@H]5CO)O[C@@H]4CO)O[C@@H]3CO [γ-Cyclodextrin] | 0.28 ± 0.07 °C
O=C(O)CCCO [γ-Hydroxy Butyric Acid] | 0.08 ± 0.00 °C
NCCCC(=O)O [γ-amino butyric acid] | 0.05 ± 0.03 °C

What follows are compounds tested against T1, PscD (PscD-SD, Cache sensor domain of chemoreceptor PscD) (assay: ITC; X-ray crystal structure (propionate soak); thermal shift). Settings: not given.
Type: binding

SMILES | Kd
CCC(=O)O [propionate] | 101 µM

Molecular target: T2, PscD (PscD-SD, Cache sensor domain of chemoreceptor PscD)
Assay: not given
Settings: Biolog plate compound, exact concentration unknown; binder
Remark: another data set of the same source
Source text: as §1

SMILES | Δ Tm
OC[C@H]1O[C@@H](O[C@@H]2[C@@H](CO)OC(O)(CO)[C@H]2O)[C@H](O)[C@@H](O)[C@H]1O (mixture of isomers) [Lactulose] | 0.20 ± 0.03 °C
CC(O)CO (centres unmarked) [1,2-Propanediol] | 0.12 ± 0.05 °C
NCCO [2-Aminoethanol] | 0.15 ± 0.05 °C
Nc1ncnc2c1ncn2[C@H]1C[C@H](O)[C@@H](CO)O1 [2-Deoxy-Adenosine] | 0.17 ± 0.05 °C
CC(=O)CC(=O)O [Acetoacetic Acid] | 0.63 ± 0.05 °C
Nc1ncnc2c1ncn2[C@@H]1O[C@H](CO)[C@@H](O)[C@H]1O [Adenosine] | 0.15 ± 0.05 °C
OC[C@@H](O)[C@@H](O)[C@@H](O)CO [Adonitol] | 0.12 ± 0.03 °C
O=C(O)CC(Br)C(=O)O (centres unmarked) [Bromo Succinic Acid] | 0.05 ± 0.10 °C
C[C@@H](N)C(=O)O [D-Alanine] | 0.12 ± 0.03 °C
O=C(CO)[C@@H](O)[C@H](O)[C@H](O)CO [D-Fructose] | 0.17 ± 0.05 °C
O=C[C@H](O)[C@@H](O)[C@@H](O)[C@H](O)CO [D-Galactose] | 0.17 ± 0.02 °C
O=C(O)[C@H](O)[C@@H](O)[C@H](O)[C@H](O)CO [D-Gluconic Acid] | 0.17 ± 0.02 °C
N[C@@H](C(=O)O)[C@@H](O)[C@H](O)[C@H](O)CO [D-Glucosaminic Acid] | 0.10 ± 0.05 °C
O=P(O)(O)O[C@H]1O[C@H](CO)[C@@H](O)[C@H](O)[C@H]1O [D-Glucose-1-Phosphate] | 0.10 ± 0.05 °C
O=C(O)C[C@@H](O)C(=O)O [D-Malic Acid] | 0.17 ± 0.05 °C
OC[C@@H](O)[C@@H](O)[C@H](O)[C@H](O)CO [D-Mannitol] | 0.17 ±0.05 °C
OC[C@H]1OC(O)[C@@H](O)[C@@H](O)[C@@H]1O (stereo partly drawn) [D-Mannose] | 0.17 ± 0.05 °C
O[C@@H]1[C@H](O)[C@H](O)CO[C@H]1O [D-Ribose] | 0.12 ±0.05 °C
N[C@H](CO)C(=O)O [D-Serine] | 0.00 ± 0.00 °C
OC[C@@H](O)[C@@H](O)[C@H](O)[C@@H](O)CO [D-Sorbitol] | 0.05 ± 0.07 °C
O=CO [Formic Acid] | 0.20 ±0.03 °C
NC(=O)[C@H]1O[C@@H](O)[C@H](O)[C@@H](O)[C@@H]1O [Glucuronamide] | 0.17 ± 0.06 °C

SMILES | Δ Tm
OCC(O)CO [Glycerol] | 0.10 ± 0.05 °C
NCC(=O)N[C@@H](CC(=O)O)C(=O)O [Glycyl-L-Aspartic Acid] (H-Gly-Asp-OH) | 0.00 ± 0.00 °C
NCC(=O)N[C@@H](CCC(=O)O)C(=O)O [Glycyl-L-Glutamic Acid] (H-Gly-Glu-OH) | 0.00 ± 0.00 °C
NCC(=O)N1CCC[C@H]1C(=O)O [Glycyl-L-Proline] (H-Gly-Pro-OH) | 0.00 ± 0.00 °C
O=c1[nH]cnc2c1ncn2[C@@H]1O[C@H](CO)[C@@H](O)[C@H]1O [Inosine] | 0.15 ± 0.05 °C
C[C@H](N)C(=O)O [L-Alanine] | 0.10 ± 0.03 °C
C[C@H](N)C(=O)NCC(=O)O [L-Alanyl-Glycine] (H-Ala-Gly-OH) | 0.07 ± 0.08 °C
O[C@@H]1[C@@H](O)[C@@H](O)CO[C@H]1O [L-Arabinose] | 0.05 ± 0.07 °C
NC(=O)C[C@H](N)C(=O)O [L-Asparagine] | 0.00 ± 0.00 °C
N[C@@H](CC(=O)O)C(=O)O [L-Aspartic Acid] | 0.17 ± 0.05 °C
C[C@H](O)[C@@H](O)[C@@H](O)[C@H](O)C=O [L-Fucose] | 0.12 ± 0.05 °C
NC(=O)CC[C@H](N)C(=O)O [L-Glutamine] | 0.00 ± 0.00 °C
C[C@H](O)C(=O)O [L-Lactic Acid] | 0.12 ±0.03 °C
O=C[C@H](O)[C@H](O)[C@@H](O)CO [L-Lyxose] | 0.28 ± 0.05 °C
O=C(O)[C@@H]1CCCN1 [L-Proline] | 0.07 ± 0.04 °C
N[C@@H](CO)C(=O)O [L-Serine] | 0.10 ± 0.05 °C
C[C@@H](O)[C@H](N)C(=O)O [L-Threonine] | 0.12 ± 0.05 °C
N[C@@H](CCC(=O)O)C(=O)O [L-glutamic acid] | 0.15 ±0.05 °C
OC[C@H]1O[C@H](O[C@H]2[C@H](O)[C@@H](O)[C@H](O)O[C@@H]2CO)[C@H](O)[C@@H](O)[C@@H]1O [Maltose] | 0.20 ± 0.03 °C
COC(=O)C(C)=O [Methyl Pyruvate] | 0.48 ± 0.13 °C
COC(=O)CCC(=O)O [Mono Methyl Succinate] | 0.12 ± 0.03 °C
O=C(O)[C@@H](O)[C@H](O)[C@H](O)[C@@H](O)C(=O)O [Mucic Acid] | 0.07 ± 0.04 °C

SMILES | Δ Tm
CC(=O)N[C@@H]1[C@@H](O)[C@H](O)[C@@H](CO)O[C@@H]1O [N-Acetyl-D-Glucosamine] | 0.10 ± 0.05 °C
CC(=O)N[C@H]1[C@@H](O)[C@H](O)[C@@H](CO)O[C@H]1O [N-Acetyl-β-D-Mannosamine] | 0.07 ± 0.04 °C
NCCc1ccccc1 [Phenylethyl-amine] | 0.17 ± 0.05 °C
O=C(O)CCC(=O)O [Succinic Acid] | 0.10 ± 0.03 °C
OC[C@H]1O[C@@](CO)(O[C@H]2O[C@H](CO)[C@@H](O)[C@H](O)[C@H]2O)[C@@H](O)[C@@H]1O [Sucrose] | 0.17 ± 0.05 °C
Cc1cn([C@H]2C[C@H](O)[C@@H](CO)O2)c(=O)[nH]c1=O [Thymidine] | 0.15 ± 0.05 °C
O=C(O)CC(CC(=O)O)C(=O)O [Tricarballylic Acid] | -0.03 ± 0.05 °C
NCCc1ccc(O)cc1 [Tyramine] | 0.12 ± 0.03 °C
O=c1ccn([C@@H]2O[C@H](CO)[C@@H](O)[C@H]2O)c(=O)[nH]1 [Uridine] | 0.15 ± 0.05 °C
O=C(O)CO [glycolate] | 1.13 ± 0.00 °C
O=C(O)Cc1cccc(O)c1 [m-Hydroxy Phenyl Acetic Acid] | 0.10 ± 0.05 °C
O=C(O)Cc1ccc(O)cc1 [p-Hydroxy Phenyl Acetic Acid] | 0.15 ± 0.04 °C
CCC(=O)O [propionate] | 2.66 ± 0.11 °C
CC(=O)C(=O)O [pyruvate] | 1.01 ± 0.03 °C
OC[C@H]1O[C@H](O)[C@H](O)[C@@H](O)[C@@H]1O [α-D-Glucose] | 0.12 ± 0.03 °C
OC[C@H]1O[C@@H](O[C@H]2[C@H](O)[C@@H](O)[C@@H](O)O[C@@H]2CO)[C@H](O)[C@@H](O)[C@H]1O [α-D-Lactose] | 0.12 ± 0.03 °C
CCC(O)C(=O)O (stereo not drawn) [α-Hydroxy Butyric Acid] | 0.17 ± 0.05 °C
CCC(=O)C(=O)O [α-Keto-Butyric Acid] | 0.17 ± 0.05 °C
O=C(O)CCC(=O)C(=O)O [α-Keto-Glutaric Acid] | 0.17 ± 0.02 °C
CO[C@@H]1O[C@H](CO)[C@@H](O)[C@H](O)[C@H]1O [β-Methyl-D-Glucoside] | 0.07 ± 0.04 °C
